Measurements taken from patent publication US5190870A, “Method for oxidizing hydrocarbons with a hydroxylase from a methane monooxygenase” (Amoco Corporation, priority 1990, dated 1993).

T1: Methylosinus trichosporium OB3b soluble methane monooxygenase, complete system (hydroxylase, component B, reductase) (Methylosinus trichosporium, UniProt P27353)
T1 sequence (P27353 1-526): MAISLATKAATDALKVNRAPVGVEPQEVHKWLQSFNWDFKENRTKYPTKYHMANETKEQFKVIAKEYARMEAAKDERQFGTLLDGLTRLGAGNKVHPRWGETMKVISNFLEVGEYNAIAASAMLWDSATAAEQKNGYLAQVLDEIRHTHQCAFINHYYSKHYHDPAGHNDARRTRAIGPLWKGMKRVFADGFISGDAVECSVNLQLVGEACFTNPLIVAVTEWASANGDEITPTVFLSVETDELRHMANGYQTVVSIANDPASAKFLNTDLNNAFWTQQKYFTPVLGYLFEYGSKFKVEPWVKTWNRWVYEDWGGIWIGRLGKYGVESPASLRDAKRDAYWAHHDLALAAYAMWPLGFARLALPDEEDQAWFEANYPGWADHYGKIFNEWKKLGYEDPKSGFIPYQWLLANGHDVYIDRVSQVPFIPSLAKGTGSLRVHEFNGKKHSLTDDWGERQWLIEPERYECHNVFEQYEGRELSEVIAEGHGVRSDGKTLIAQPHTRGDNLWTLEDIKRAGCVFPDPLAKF
T1 sequence (P27354 1-394 partner): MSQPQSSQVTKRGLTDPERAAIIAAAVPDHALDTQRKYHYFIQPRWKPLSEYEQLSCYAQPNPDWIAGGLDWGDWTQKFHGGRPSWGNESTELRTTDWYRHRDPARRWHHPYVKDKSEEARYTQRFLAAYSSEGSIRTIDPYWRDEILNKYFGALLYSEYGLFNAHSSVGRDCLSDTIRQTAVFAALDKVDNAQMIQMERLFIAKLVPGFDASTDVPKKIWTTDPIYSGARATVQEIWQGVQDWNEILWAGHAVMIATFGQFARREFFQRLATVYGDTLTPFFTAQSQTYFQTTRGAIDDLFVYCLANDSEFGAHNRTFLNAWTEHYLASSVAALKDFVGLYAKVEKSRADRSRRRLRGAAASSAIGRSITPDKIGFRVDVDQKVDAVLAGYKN
T1 sequence (P27355 1-169 partner): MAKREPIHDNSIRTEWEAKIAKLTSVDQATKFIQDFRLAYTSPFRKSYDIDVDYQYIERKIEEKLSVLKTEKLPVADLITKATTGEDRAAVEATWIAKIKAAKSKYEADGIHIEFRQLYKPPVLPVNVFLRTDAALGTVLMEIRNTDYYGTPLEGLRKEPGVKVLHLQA


Experiments:
[1] = molecular target: T1, Methylosinus trichosporium OB3b soluble methane monooxygenase, complete system (hydroxylase, component B, reductase); test: Polarographic / gas chromatographic assay of the complete (reconstituted) methane monooxygenase; conditions: catalytic cycles per second per molecule
Description: (§1) Unless explicitly stated, the specific activity values reported for the enzyme components are those observed during the hydroxylation reaction in the presence of optimal concentrations of the other components of the methane monooxygenase. The optimal concentrations were determined by varying the concentration of one component relative to fixed concentrations of the other two components. In routine polarographic assays of methane monooxygenase activity, furan is an acceptable substrate with characteristics which facilitate the assay.

[2] = substrate: c1ccoc1; test: purified protein, by the assay type; conditions: other: complete methane monooxygenase, polarographic assay; pH 7.0; 30.0 °C
Description: as §1

Molecule	turnover number relative to the hydroxylase [1] [S^-1]	Km [2] [µM]
c1ccoc1 [furan]	7.6	–
Methylosinus trichosporium OB3b soluble methane monooxygenase, complete system (hydroxylase, component B, reductase) (Methylosinus trichosporium) (protein) MAISLATKAATDALKVNRAPVGVEPQEVHKWLQSFNWDFKENRTKYPTKYHMANETKEQFKVIAKEYARMEAAKDERQFGTLLDGLTRLGAGNKVHPRWGETMKVISNFLEVGEYNAIAASAMLWDSATAAEQKNGYLAQVLDEIRHTHQCAFINHYYSKHYHDPAGHNDARRTRAIGPLWKGMKRVFADGFISGDAVECSVNLQLVGEACFTNPLIVAVTEWASANGDEITPTVFLSVETDELRHMANGYQTVVSIANDPASAKFLNTDLNNAFWTQQKYFTPVLGYLFEYGSKFKVEPWVKTWNRWVYEDWGGIWIGRLGKYGVESPASLRDAKRDAYWAHHDLALAAYAMWPLGFARLALPDEEDQAWFEANYPGWADHYGKIFNEWKKLGYEDPKSGFIPYQWLLANGHDVYIDRVSQVPFIPSLAKGTGSLRVHEFNGKKHSLTDDWGERQWLIEPERYECHNVFEQYEGRELSEVIAEGHGVRSDGKTLIAQPHTRGDNLWTLEDIKRAGCVFPDPLAKF	–	20
